Laboratory results reported in publication PMC9356275, “A quantitative high-throughput screen identifies compounds that lower expression of the SCA2-and ALS-associated gene ATXN2” (The Journal of Biological Chemistry, 2022).
Where a name gives a salt, the structure may show the parent alone. Read-outs that look alike come from different tables or passages of the source.

What was measured:
Assay type in all cases: cell-based, human
ATXN2-luc [1] = assay: MSSR hit retest: ATXN2-luc luciferase assay, average of H2 and S1 cells (1 and 10 uM); conditions: Homo sapiens; for activity at 1 µM: read-out: H2&S1 ave luc 1uM
Text: (§1) Supplement mmc2.xlsx, sheet "43 annotated compounds"

ATXN2-luc [2] = assay: MSSR pilot screen: ATXN2-luc luciferase assay (Bright-Glo) in H2 cells, single 10 μM dose; conditions: for SD from mean (ATXN2-luc, Z-score): H2 cells, single dose (title: 10 μM compound), overnight; for ¦Score/1SD¦: absolute score divided by 1SD (0.891 or 0.9)
H2 and S1 cells = assay: Paired MTT viability assay, average of H2 and S1 cells (1 and 10 uM); conditions: Homo sapiens
Text: as §1

ATXN2-luc [3] = assay: NCATS qHTS (LOPAC pilot, primary and confirmation): ATXN2-luc in S2 cells, 1536-well, Steady-Glo; conditions: for AC50 / Log AC50 / Efficacy / Inf Activity: LOPAC library screening optimization; for Curve Class: LOPAC library (1,280 compounds) screening optimization, signed sub-classes (-1.1, -2.2, -3 ...); for Efficacy / Inf Activity: curve-fit parameter
Experimental: We next performed a pilot screen assay to optimize the 1536-well qHTS using S2 cells. […] Cytotoxicity was determined using a multiplexed viability assay (CellTiter-Fluor, a fluorescence-based viability assay using Gly-Phe-7-amino-4-trifluoromethylcoumarin substrate).
CellTiter-Fluor was used to determine compound effect on cell viability, and Steady-Glo was used to measure luciferase in a multiplexed assay.
The primary assay was conducted at the NCATS NIH Chemical Genomics Center laboratory. About 4 μl of S2 cell suspension in phenol red–free DMEM was dispensed into wells of 1536-well assay plates. […] Next, SteadyGlo luciferase substrate detection reagent (3 μl) was added to each well and incubated for an additional 5 min at room temperature. Luminescence was then measured on the ViewLux imager equipped with clear filters using a 2 s exposure. All screening operations were performed on a fully integrated robotic system (Kalypsys) containing one RX-130 and two RX-90 anthropomorphic robotic arms (Stäubli). Vehicle-only plates, with DMSO being pin-transferred to columns 5 to 48, were inserted uniformly at the beginning and the end of each library in order to monitor and record any shifts in assay performance.

ATXN2-luc [4] = assay: Secondary assays: ATXN2-luc in S2 and H2 cells, 12 doses, Bright-Glo; conditions: Homo sapiens; H2 and S2 values used as replicates, 24 h; read-out: IC50 for lowering ATXN2-luc
Experimental: The values for H2 and S2 were used as replicates to calculate IC50s and to assess cell viability.
Compounds were plated at 2× concentrations in phenol red–free DMEM in 25 μl in 384-well plates with each compound dose plated in triplicate. An equal volume of S2, H2, or SC cells (24,000 cells/well) suspended in phenol red–free DMEM with 10% fetal bovine serum and 1× penicillin/streptomycin were added. Cells were grown 24 h and then assayed first by using the CellTiter-Fluor reagent (20 μl) followed by the addition of Bright-Glo (65 μl) luciferase assay, using a multimode plate reader (Beckman; DT880). Values were reported as the mean ± SD with n = 3. IC50s were determined by the Hill coefficient method using an online tool (https://www.aatbio.com/tools/ic50-calculator).

[5] = pilot screen at 10 µM compound, H2 cells expressing ATXN2-luc
[6] = read-out: H2&S1 ave MTT 1uM, 1 uM compound
[7] = read-out: H2&S1 ave MTT 10uM, 10 uM compound
[8] = pilot screen, H2 cells expressing ATXN2-luc, single dose printed as 10 μM compound
[9] = Homo sapiens, logarithm of AC50 (negative values), read-out: Log AC50 (converted)
[10] = logarithm of AC50 (negative values)

## CO[C@H]1C[C@H](O[C@H]2CC[C@]3(C=O)[C@H]4CC[C@]5(C)[C@@H](C6=CC(=O)OC6)CC[C@]5(O)[C@@H]4CC[C@]3(O)C2)O[C@H](C)[C@H]1O [CYMARIN]
ATXN2-luc [1]
  activity at 1 µM: 14%
ATXN2-luc [1]; read-out: H2&S1 ave luc 10uM
  activity: 16%
ATXN2-luc [2]
  SD from mean (ATXN2-luc, Z-score): -4.099 SD
ATXN2-luc [2]; pilot screen
  SD from mean (pilot screen): -4.099 SD
  ¦Score/1SD¦: 4.55
ATXN2-luc [2]; [5]
  SD from mean (pilot screen): -4.099
H2 and S1 cells; [6]
  viability at 1 µM: 54.2%
H2 and S1 cells; [7]
  viability at 10 µM: 59.3%

## C[C@@H]1O[C@@H](O[C@H]2CC[C@]3(C=O)[C@H]4CC[C@]5(C)[C@@H](C6=CC(=O)OC6)CC[C@]5(O)[C@@H]4CC[C@]3(O)C2)[C@H](O)[C@H](O)[C@H]1O [CONVALLATOXIN]
ATXN2-luc [1]; 1 uM compound, average of H2 and S1 cells
  activity at 1 µM: 12%
ATXN2-luc [1]; head line r3 10uM, average of H2 and S1 cells, read-out: H2&S1 ave luc 10uM
  activity at 10 µM: 11%
ATXN2-luc [2]
  SD from mean (ATXN2-luc, Z-score): -3.689 SD
ATXN2-luc [2]; pilot screen
  SD from mean (pilot screen): -3.689 SD
  ¦Score/1SD¦: 4.10
ATXN2-luc [2]; [5]
  SD from mean (pilot screen): -3.689
H2 and S1 cells; 1 uM compound, read-out: H2&S1 ave MTT 1uM
  viability at 1 µM: 62.2%
H2 and S1 cells; 10 uM compound, read-out: H2&S1 ave MTT 10uM
  viability at 10 µM: 70%

## CO[C@H]1[C@H](O)[C@H](O[C@H]2CC[C@@]3(C=O)[C@H](CC[C@@H]4[C@@H]3CC[C@]3(C)[C@@H](C5=CC(=O)OC5)CC[C@]43O)C2)O[C@@H](C)[C@@H]1O [PERUVOSIDE]
ATXN2-luc [1]
  activity at 1 µM: 15%
ATXN2-luc [1]; read-out: H2&S1 ave luc 10uM
  activity: 12%
ATXN2-luc [2]
  SD from mean (ATXN2-luc, Z-score): -4.038 SD
ATXN2-luc [2]; pilot screen
  SD from mean (pilot screen): -4.038 SD
  ¦Score/1SD¦: 4.49
ATXN2-luc [2]; [5]
  SD from mean (pilot screen): -4.038
H2 and S1 cells; [6]
  viability at 1 µM: 47.5%
H2 and S1 cells; [7]
  viability at 10 µM: 60%

## C[C@H]1O[C@@H](O[C@H]2[C@@H](O)C[C@H](O[C@H]3[C@@H](O)C[C@H](O[C@H]4CC[C@@]5(C)[C@H](CC[C@@H]6[C@@H]5CC[C@]5(C)[C@@H](C7=CC(=O)OC7)CC[C@]65O)C4)O[C@@H]3C)O[C@@H]2C)C[C@H](O)[C@@H]1O [DIGITOXIN]
ATXN2-luc [1]
  activity at 1 µM: 27%
ATXN2-luc [1]; read-out: H2&S1 ave luc 10uM
  activity: 19%
ATXN2-luc [2]
  SD from mean (ATXN2-luc, Z-score): -4.100 SD
ATXN2-luc [2]; pilot screen
  SD from mean (pilot screen): -4.100 SD
  ¦Score/1SD¦: 4.56
ATXN2-luc [2]; [5]
  SD from mean (pilot screen): -4.100
H2 and S1 cells; [6]
  viability at 1 µM: 34.3%
H2 and S1 cells; [7]
  viability at 10 µM: 49.1%

## CO[C@H]1C[C@H](O[C@H]2CC[C@]3(C)[C@H]4CC[C@]5(C)[C@@H](C6=CC(=O)OC6)CC[C@]5(O)[C@@H]4CC[C@]3(O)C2)O[C@H](C)[C@H]1O [PERIPLOCYMARIN]
ATXN2-luc [1]
  activity at 1 µM: 75%
ATXN2-luc [1]; read-out: H2&S1 ave luc 10uM
  activity: 17%
ATXN2-luc [2]
  SD from mean (ATXN2-luc, Z-score): -2.759 SD
ATXN2-luc [2]; pilot screen
  SD from mean (pilot screen): -2.759 SD
  ¦Score/1SD¦: 3.07
ATXN2-luc [2]; [8]
  SD from mean (pilot screen): -2.759
H2 and S1 cells; [6]
  viability at 1 µM: 58.7%
H2 and S1 cells; [7]
  viability at 10 µM: 37.1%

## C[n+]1cc2c3c(ccc2c2ccc4cc5c(cc4c21)OCO5)OCO3 [Sanguinarine]
ATXN2-luc [1]
  activity at 1 µM: 127%
ATXN2-luc [1]; read-out: H2&S1 ave luc 10uM
  activity: 160%
ATXN2-luc [2]
  SD from mean (ATXN2-luc, Z-score): -2.689 SD
ATXN2-luc [2]; pilot screen
  SD from mean (pilot screen): -2.689 SD
  ¦Score/1SD¦: 3.02
ATXN2-luc [2]; [8]
  SD from mean (pilot screen): -2.689
H2 and S1 cells; [6]
  viability at 1 µM: 103%
H2 and S1 cells; [7]
  viability at 10 µM: 114%

## OC(CCN1CCCCC1)(c1ccccc1)C1CC2C=CC1C2 (stereo not drawn) [Biperiden hydrochloride]
ATXN2-luc [3]; [9]
  AC50: 17.8 µM
ATXN2-luc [3]; Homo sapiens, read-out: AC50
  AC50: 17.8 µM
ATXN2-luc [3]
  Curve Class: -2.2
ATXN2-luc [3]; [10]
  Log AC50: -4.6
ATXN2-luc [3]; read-out: AC50
  AC50: 25.1 µM

## CC[C@H](O)C(C[C@H](C)N(C)C)(c1ccccc1)c1ccccc1.Cl [(+)-alpha-Methadol hydrochloride]
ATXN2-luc [3]; [9]
  AC50: 35.5 µM
ATXN2-luc [3]; Homo sapiens, read-out: AC50
  AC50: 35.5 µM
ATXN2-luc [3]
  Efficacy: -65.8804
  Inf Activity: -66.2609

## c1ccc(CN2CCC3(CCCc4ccccc43)CC2)cc1 [L-687,384 hydrochloride]
ATXN2-luc [3]; [9]
  AC50: 14.1 µM
ATXN2-luc [3]; Homo sapiens, read-out: AC50
  AC50: 14.1 µM
ATXN2-luc [3]
  Curve Class: -2.2
  Efficacy: -56.3105
  Inf Activity: -51.8105

## CC(C)c1cc(-c2n[nH]c(=O)n2-c2ccc3c(ccn3C)c2)c(O)cc1O [ganetespib]
ATXN2-luc [4]
  IC50: 0.03 µM

## Br.C[C@H]1C2Cc3ccc(O)cc3[C@]1(C)CCN2CCc1ccccc1 (single isomer, unassigned; (-)) [(-)-Phenazocine hydrobromide]
ATXN2-luc [3]; [9]
  AC50: 35.5 µM
ATXN2-luc [3]; Homo sapiens, read-out: AC50
  AC50: 35.5 µM
ATXN2-luc [3]
  Efficacy: -71.0942
  Inf Activity: -66.3244

## CNCCC(Oc1ccc(C(F)(F)F)cc1)c1ccccc1 (stereo not drawn) [Fluoxetine hydrochloride]
ATXN2-luc [3]; [9]
  AC50: 12.6 µM
ATXN2-luc [3]; Homo sapiens, read-out: AC50
  AC50: 12.6 µM
ATXN2-luc [3]
  Curve Class: -2.1
ATXN2-luc [3]; [10]
  Log AC50: -4.85
ATXN2-luc [3]; read-out: AC50
  AC50: 14.1 µM
